Source: patent publication US20240124451A1, “PHTHALAZINE DERIVATIVES USEFUL AS INHIBITORS OF NOD-LIKE RECEPTOR PROTEIN 3” (Merck Sharp & Dohme LLC, priority 2022, published 2024)

Target: T1, NLRP3 inflammasome (Homo sapiens, UniProt Q96P20)
T1 construct: host or cells: THP-1 human monocytic cells, PMA-treated, stimulated with gramicidin
Test: ASC-SPECK formation in THP-1 cells after gramicidin stimulation (NLRP3 inflammasome activation)
Type: cell-based
Conditions: PMA-treated human monocytic THP-1 cells, compound 1 h before 12.5 ug/ml gramicidin, 3 h, ASC SPECK imaging; read-out: EC50 (nM) for Examples that inhibit NLRP3 inflammasome activation
Experimental: The ability of compounds to inhibit NLRP3 inflammasome activation was determined in vitro by monitoring formation of the ASC-SPECK in human monocytic THP-1 cells after stimulation. THP-1 cells (ATCC catalog #TIB-202) were maintained in complete growth media containing Roswell Park Memorial Institute RPMI (ATCC catalog #30-2001), 10% heat inactivated fetal bovine serum, 1× penicillin/streptomycin and 0.05 mM 2-mercaptoethanol. At the start of the assay, undifferentiated THP-1 cells were plated at a density of 20,000 cells per well in a 384-well plate (Poly-D-lysine coated Cell Carrier Ultra microplate, Perkin Elmer catalog #6057500) in complete growth media supplemented with 10 ng/ml phorbol 12-myristate 13-acetate (PMA; Sigma catalog #P8139), and then incubated overnight. The next day, media was replaced with assay media [RPMI (Gibco catalog #11875-093), 0.01% bovine serum albumin (BSA)]. Compounds were serially diluted in DMSO and then added to wells one hour prior to the addition of 12.5 ug/ml Gramicidin (Enzo Lifescience, catalog #ALX-350-233-M005). All incubations were carried out at 37° C. (5% CO2/95% air). Following a 3-hour treatment with gramicidin, cells are fixed with 4% paraformaldehyde and stored at 4° C. until immunofluorescence staining.
Immunofluorescence staining: Anti-ASC antibody (MBL catalog #D086-3) was desalted and labeled with Alexa 488 antibody labeling kit (Thermo catalog #A20181) prior to use as described below. After fixation, the following steps were carried out at room temperature. Cells were first permeabilized with 0.3% Triton X-100 in phosphate-buffered saline (PBS) for 15 minutes and then incubated in blocking buffer containing 5% goat serum, 0.3% tween-20 and 0.03% sodium azide in PBS for 1 hour. Cells were stained with a mixture of ASC-Alexa 488 antibody (diluted 1:200 in blocking buffer) and nuclear stain DRAQ5 (1:5000 in blocking buffer, Thermo catalog #62251) in blocking buffer for 1 hour. Following a wash with 0.3% Tween-20 in PBS, plates were imaged with an Opera Phenix High Content Screening System. The number of DRAQ5 positive cells containing ASC SPECKS were quantified in each well.
Data analysis: EC50 values were calculated by standard curve-fitting analysis using an internally developed program in TIBCO Spotfire software.

T1 sequence (Q96P20 whole entry): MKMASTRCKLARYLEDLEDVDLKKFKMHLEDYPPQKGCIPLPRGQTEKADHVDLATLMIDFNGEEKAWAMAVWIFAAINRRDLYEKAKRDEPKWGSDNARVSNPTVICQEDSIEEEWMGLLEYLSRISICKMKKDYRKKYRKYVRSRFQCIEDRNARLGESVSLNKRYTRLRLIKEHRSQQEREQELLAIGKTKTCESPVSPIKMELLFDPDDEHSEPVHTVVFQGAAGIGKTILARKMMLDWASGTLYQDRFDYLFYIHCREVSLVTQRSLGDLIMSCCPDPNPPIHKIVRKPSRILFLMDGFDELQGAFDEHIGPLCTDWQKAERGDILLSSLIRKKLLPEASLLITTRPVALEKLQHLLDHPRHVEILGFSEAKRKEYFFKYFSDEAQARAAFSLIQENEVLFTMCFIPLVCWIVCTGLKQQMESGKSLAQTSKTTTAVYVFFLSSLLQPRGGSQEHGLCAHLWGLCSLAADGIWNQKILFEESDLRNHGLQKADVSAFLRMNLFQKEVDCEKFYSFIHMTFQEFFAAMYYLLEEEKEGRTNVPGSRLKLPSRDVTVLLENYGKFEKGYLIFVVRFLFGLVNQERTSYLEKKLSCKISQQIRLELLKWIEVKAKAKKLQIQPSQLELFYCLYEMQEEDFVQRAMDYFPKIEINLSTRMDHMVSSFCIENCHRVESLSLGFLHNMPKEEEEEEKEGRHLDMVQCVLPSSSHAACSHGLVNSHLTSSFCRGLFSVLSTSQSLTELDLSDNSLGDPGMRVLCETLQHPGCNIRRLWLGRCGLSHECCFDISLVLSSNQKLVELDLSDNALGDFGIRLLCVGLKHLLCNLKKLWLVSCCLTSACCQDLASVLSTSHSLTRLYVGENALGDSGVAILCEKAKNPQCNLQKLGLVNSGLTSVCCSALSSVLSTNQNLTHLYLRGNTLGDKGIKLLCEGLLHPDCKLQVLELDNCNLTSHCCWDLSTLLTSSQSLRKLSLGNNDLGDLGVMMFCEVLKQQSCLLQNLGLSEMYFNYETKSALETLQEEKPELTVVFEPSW

| EC50 [nM] | SMILES |
| --- | --- |
| 999 | Oc1cc(C(F)(F)F)ccc1-c1nnc(N2C[C@@H]3[C@H](C2)C3(F)F)c2ncccc12 [Example 41, 2-(8-(6,6-difluoro-3-azabicyclo[3.1.0]hexan-3-yl)pyrido[2,3-d]pyridazin-5-yl)-5-(trifluoromethyl)phenol] |
| 221 | C[C@@H]1CN(c2nnc(-c3ccc(C(F)(F)F)cc3O)c3cccnc23)C[C@H](C)C1(F)F [Example 33, 2-(8-((cis)-4,4-difluoro-3,5-dimethylpiperidin-1-yl)pyrido[2,3-d]pyridazin-5-yl)-5-(trifluoromethyl)phenol] |
| 742 | CN1CC2(CCN(c3nnc(-c4ccc(C(F)(F)F)cc4O)c4cccnc34)CC2)OC1=O [Example 36, 8-(5-(2-hydroxy-4-(trifluoro-methyl)phenyl)pyrido[2,3-d]-pyridazin-8-yl)-3-methyl-1-oxa-3,8-diazaspiro[4.5]decan-2-one] |
| 5 | CN1CC[C@H]2CCN(c3nnc(-c4ccc(C(F)(F)F)cc4O)c4cccnc34)[C@H]2C1 [Example 23, 2-(8-((3aS,7aR)-6-methyloctahydro-1H-pyrrolo[2,3-c]pyridin-1-yl)pyrido[2,3-d]pyridazin-5-yl)-5-(trifluoromethyl)phenol] |
| 891 | C[C@@H]1CN(c2nnc(-c3ccc(C(F)(F)F)cc3OC(F)F)c3cccnc23)C[C@H](C)O1 [Example 3, (cis)-4-(5-(2-(difluoromethoxy)-4-(trifluoromethyl)phenyl)pyrido[2,3-d]pyridazin-8-yl)-2,6-dimethylmorpholine] |
| 815 | Cc1ccc2c(N3C[C@@H](C)O[C@@H](C)C3)nnc(-c3ccc(C(F)(F)F)cc3O)c2c1 [Example 21, 2-(4-((cis)-2,6-dimethylmorpholino)-7-methylphthalazin-1-yl)-5-(trifluoromethyl)phenol] |
| 915 | Oc1cc(C(F)(F)F)ccc1-c1nnc(N2CCC3(CCOC3)CC2)c2ncccc12 [Example 31, 2-(8-(2-oxa-8-azaspiro[4.5]decan-8-yl)pyrido[2,3-d]pyridazin-5-yl)-5-(trifluoromethyl)phenol] |
| 1270 | Oc1cc(C(F)(F)F)ccc1-c1nnc(N2CCC3(CCCO3)CC2)c2ncccc12 [Example 30, 2-(8-(1-oxa-8-azaspiro[4.5]decan-8-yl)pyrido[2,3-d]pyridazin-5-yl)-5-(trifluoromethyl)phenol] |
| 49 | C[C@]1(O)CCN(c2nnc(-c3ccc(C(F)(F)F)cc3O)c3ccncc23)C1 (single isomer, unassigned) [Example 2] |
| 1330 | CC(C)(O)[C@H]1CCN(c2nnc(-c3ccc(C(F)(F)F)cc3O)c3cccnc23)C1 [Example 50, (S)-2-(8-(3-(2-hydroxypropan-2-yl)pyrrolidin-1-yl)pyrido[2,3-d]pyridazin-5-yl)-5-(trifluoromethyl)phenol] |
| 734 | Cc1cccc2c(-c3ccc(C(F)(F)F)cc3O)nnc(N3C[C@@H](C)O[C@@H](C)C3)c12 [Example 14, 2-(4-((cis)-2,6-dimethylmorpholino)-5-methylphthalazin-1-yl)-5-(trifluoromethyl)phenol] |
| 33 | Cc1ccc2c(-c3ccc(C(F)(F)F)cc3O)nnc(N3C[C@@H](C)O[C@@H](C)C3)c2c1 (single isomer, unassigned) [Example 20, 2-(4-((cis)-2,6-dimethylmorpholino)-6-methylphthalazin-1-yl)-5-(trifluoromethyl)phenol] |
| 60 | Cc1ccc2c(-c3ccc(C(F)(F)F)cc3O)nnc(N3CC[C@](C)(O)C3)c2n1 [Example 10, (S)-1-(5-(2-hydroxy-4-(trifluoromethyl)phenyl)-2-methylpyrido[2,3-d]pyridazin-8-yl)-3-methylpyrrolidin-3-ol] |
| 1600 | Oc1cc(C(F)(F)F)ccc1-c1nnc(N2CCC(O)(c3ccccc3)C2)c2ncccc12 (racemic) [Example 38, (R and S)-1-(5-(2-hydroxy-4-(trifluoromethyl)phenyl)pyrido [2,3-d]pyridazin-8-yl)-3-phenylpyrrolidin-3-ol] |
| 330 | O=C1COC2(CCN(c3nnc(-c4ccc(C(F)(F)F)cc4O)c4cccnc34)CC2)CN1 [Example 32, 9-(5-(2-hydroxy-4-(trifluoromethyl)phenyl)pyrido [2,3-d]pyridazin-8-yl)-1-oxa-4,9-diazaspiro[5.5]undecan-3-one] |
| 952 | O=C1CCC2(CCN(c3nnc(-c4ccc(C(F)(F)F)cc4O)c4cccnc34)CC2)O1 [Example 42, 8-(5-(2-hydroxy-4-(trifluoromethyl)phenyl)pyrido [2,3-d]pyridazin-8-yl)-1-oxa-8-azaspiro[4.5]decan-2-one] |
| 82 | C[C@@H]1CN(c2nnc(-c3ccc(C(F)(F)F)cc3O)c3ccncc23)C[C@H](C)O1 [Example 4, 2-(4-((cis)-2,6-dimethylmorpholino)pyrido[3,4-d]pyridazin-1-yl)-5-(trifluoromethyl)phenol] |
| 1790 | CC(C)(O)[C@@H]1CCN(c2nnc(-c3ccc(C(F)(F)F)cc3O)c3cccnc23)C1 [Example 49, (R)-2-(8-(3-(2-hydroxypropan-2-yl)pyrrolidin-1-yl)pyrido[2,3-d]pyridazin-5-yl)-5-(trifluoromethyl)phenol] |
| 1230 | Oc1cc(C(F)(F)F)ccc1-c1nnc(N2CCC(O)(C(F)(F)F)C2)c2ncccc12 (racemic) [Example 27, (R and S)-1-(5-(2-hydroxy-4-(trifluoromethyl)phenyl)pyrido [2,3-d]pyridazin-8-yl)-3-(trifluoromethyl)pyrrolidin-3-ol] |
| 591 | Oc1cc(C(F)(F)F)ccc1-c1nnc(N2CC(O)C3(CC3)C2)c2ncccc12 (racemic) [Example 44, (R and S)-5-(5-(2-hydroxy-4-(trifluoromethyl)phenyl)pyrido [2,3-d]pyridazin-8-yl)-5-azaspiro[2.4]heptan-7-ol] |
| 411 | CC1(CO)CCN(c2nnc(-c3ccc(C(F)(F)F)cc3O)c3cccnc23)C1 (racemic) [Example 48, (R and S)-2-(8-(3-(hydroxymethyl)-3-methylpyrrolidin-1-yl)pyrido[2,3-d]pyridazin-5-yl)-5-(trifluoromethyl)phenol] |
| 52 | C[C@@H]1CN(c2nnc(-c3ccc(C(F)(F)F)cc3O)c3cccnc23)C[C@H](C)[C@]1(C)O [Example 24, (3S,4s,5R)-1-(5-(2-hydroxy-4-(trifluoromethyl)phenyl)pyrido [2,3-d]pyridazin-8-yl)-3,4,5-trimethylpiperidin-4-ol] |
| 70 | C[C@@H]1CN(c2nnc(-c3ccc(C(F)(F)F)cc3O)c3ccncc23)C[C@H](C)[C@]1(C)O (single isomer, unassigned) [Example 16] |
| 556 | C[C@@H]1CN(c2nnc(-c3ccc(C(F)(F)F)cc3O)c3cnccc23)C[C@H](C)O1 [Example 5, 2-(1-((cis)-2,6-dimethylmorpholino)pyrido[3,4-d]pyridazin-4-yl)-5-(trifluoromethyl)phenol] |
| 74 | CC1CN(c2nnc(-c3ccc(C(F)(F)F)cc3O)c3cccnc23)CC(CO)O1 (single isomer, unassigned) [Example 52, 2-(8-((2S,6S or 2R,6R)-2-(hydroxy-methyl)-6-methyl-morpholino)pyrido[2,3-d]pyridazin-5-yl)-5-(trifluoro-methyl)phenol] |
| 621 | C[C@]1(O)CCN(c2nnc(-c3ccc(C(F)(F)F)cc3O)c3ccc(C(F)(F)F)nc23)C1 [Example 12, (S)-1-(5-(2-hydroxy-4-(trifluoromethyl)phenyl)-2-(trifluoromethyl)pyrido[2,3-d]pyridazin-8-yl)-3-methylpyrrolidin-3-ol] |
| 482 | Oc1cc(C(F)(F)F)ccc1-c1nnc(N2CC(O)C(F)(F)C2)c2ncccc12 (racemic) [Example 43, (R and S)-4,4-difluoro-1-(5-(2-hydroxy-4-(trifluoromethyl)phenyl)pyrido [2,3-d]pyridazin-8-yl)pyrrolidin-3-ol] |
| 23 | C[C@@H]1CN(c2nnc(-c3ccc(C(F)(F)F)cc3O)c3ccncc23)C[C@H](C)[C@H]1O (single isomer, unassigned) [Example 18] |
| 1510 | CC(=O)N1CCCC12CCN(c1nnc(-c3ccc(C(F)(F)F)cc3O)c3cccnc13)CC2 [Example 34, 1-(8-(5-(2-hydroxy-4-(trifluoromethyl)phenyl)pyrido [2,3-d]pyridazin-8-yl)-1,8-diazaspiro[4.5]decan-1-yl)ethan-1-one] |
